The values that follow are results of earlier work, collected in patent US9226944B2, “Herbal preparation for sleep apnea relief” (priority 2008, dated 2016).

The conditions of this data set: combined with the plant vs freed from the other constituents; heat accelerates decomposition.

As for `CN1C(CC(=O)c2ccccc2)CCCC1CC(O)c1ccccc1` (stereo not shown) [Lobeline, 2-[6-(2-hydroxy-2-phenyl-ethyl)-1-methyl-2-piperidyl]-1-phenyl-ethanone], the stability of lobeline result is recorded as “decomposes when freed from contact with the other constituents of the plant”.
